Experimental data published in PMC12333026, “Versatile Imidazole Scaffold with Potent Activity against Multiple Apicomplexan Parasites” (ACS Infectious Diseases, 2025).
pEC50, pIC50: −log10 of the molar value. Where two headings read alike, the source gives them in different places.

Assays:
PfPKG = PfPKG (Plasmodium falciparum, UniProt Q8I719); experiment: PfPKG enzyme activity assay, recombinant WT; type: biochemical
Procedure: (§1) Direct inhibition of recombinant PfPKG phosphorylation activity was carried out using a previously described nonradioactive assay. The assay evaluates PfPKG activity based on changes in initial ATP concentration via luminescence after enzyme phosphorylation of peptide substrate PKCtide ([…]) (SignalChem, Richmond, BC Canada). Enzyme kinase activity was measured in the presence of 26 μM PKCtide; 50.1 nM PfPKG; and 20 μM cGMP in a buffered solution containing 20 mM β-glycerol-phosphate, 20 mM MgCl2, 25 mM HEPES pH 7.5 (KOH), 0.1% BSA and 2 mM DTT. The reaction was activated by the addition of 10 μM ATP with incubation at 30 °C and 90 rpm agitation for 120 min. […] Each assay plate contained reaction wells with no enzyme, no PKCtide peptide substrate and no cGMP as internal controls.

PfPKG T618Q = PfPKG T618Q (Plasmodium falciparum, UniProt Q8I719, T618Q); experiment: PfPKG enzyme activity assay, T618Q gatekeeper mutant; type: biochemical, P. falciparum
Procedure: as §1

PfCDPK1 = biological target: T1, PfCDPK1 (Plasmodium falciparum, UniProt P62344); experiment: CDPK enzyme activity assay, PfCDPK1; type: biochemical, P. falciparum; details: recombinant enzyme; mean ± SD, n = 2–3 experiments; read-out: enzyme IC50 (±SD) PfCDPK1 WT
T1 construct: made in house
Procedure: (§2) Recombinant expression of PfCDPK1, PfCDPK4, TgCDPK1 WT, TgCDPK1-G128M, CpCDPK1 and CpCDPK1-G152 M were purified as previously described. […] These reactions were performed in a buffer composed of 1 mM EGTA (pH 7.2), 10 mM MgCl2, 20 mM HEPES pH 7.5 (KOH), 0.1% BSA. The reactions were initiated with addition of 10 μM ATP and 2 mM CaCl2 as enzyme activation reagent. Reaction plates were incubated for 90 min with 90 rpm agitation at 30 °C. […] KinaseGlo (Promega) luminescence-based assay in which luminescence is inversely related to kinase activity and […] was used as previously described.

PfCDPK4 = biological target: T2, PfCDPK4 (Plasmodium falciparum, UniProt Q8IBS5); experiment: CDPK enzyme activity assay, PfCDPK4; type: biochemical, P. falciparum
T2 construct: made in house
Procedure: as §2

[1] = system: P. falciparum 3D7 (WT) asexual stage parasites; experiment: Growth inhibition assay, asexual stage parasites, WT 3D7; type: cell-based; details: Plasmodium falciparum; 3D7 asexual stage parasites, 72 h; mean ± SD, n = 1–2
Procedure: (§3) lines were maintained with O+ human erythrocytes (BioIVT). WT 3D7A10 and T618Q parasites were kind gifts from Dr. David Fidock (Columbia University) and Dr. David Baker (London School of Tropical Medicine and Hygiene), respectively. Growth inhibition assays were performed as previously described. Parasites were grown in RPMI 1640 medium (Sigma-Aldrich, St. Louis, MO, U.S.A.) supplemented with 5 mg/mL Albumax (Gibco), 50 μg/mL hypoxanthine (Sigma-Aldrich), 2 mg/mL Na2CO3 (Sigma-Aldrich), 25 mM HEPES, and 50 μg/mL gentamicin (Gibco). The growth assay was initiated with cultures with >80% ring stage parasites, diluted to a parasitemia of 0.4% and a hematocrit of 1%. Parasites were transferred to a 96-well plate with test compounds, vehicle, or DHA as positive control, and maintained for 72 h in 5% CO2, 5% O2, and 90% N2 in a humidified chamber. Parasite viability at 72 h was determined by addition of SYBR Green I nucleic acid stain (Thermo Fisher Scientific, S7563) and Mitotracker Deep Red (Fisher M422426) followed by flow cytometry on a BD FACSVerse using BD FACSuite software. Data acquired were analyzed using Flowjo software. EC50 values were derived by nonlinear regression in Graph Pad Prism 7.

[2] = system: P. falciparum T618Q asexual stage parasites; experiment: Growth inhibition assay, asexual stage parasites expressing PfPKG T618Q; type: cell-based; details: Plasmodium falciparum, 72 h, read-out: P. falciparum EC50 (±SD) T618Q
Procedure: as §3

TgCDPK1 WT = biological target: T3, TgCDPK1 WT (Toxoplasma gondii, UniProt Q9BJF5); experiment: biochemical
T3 sequence (Q9BJF5 1-507): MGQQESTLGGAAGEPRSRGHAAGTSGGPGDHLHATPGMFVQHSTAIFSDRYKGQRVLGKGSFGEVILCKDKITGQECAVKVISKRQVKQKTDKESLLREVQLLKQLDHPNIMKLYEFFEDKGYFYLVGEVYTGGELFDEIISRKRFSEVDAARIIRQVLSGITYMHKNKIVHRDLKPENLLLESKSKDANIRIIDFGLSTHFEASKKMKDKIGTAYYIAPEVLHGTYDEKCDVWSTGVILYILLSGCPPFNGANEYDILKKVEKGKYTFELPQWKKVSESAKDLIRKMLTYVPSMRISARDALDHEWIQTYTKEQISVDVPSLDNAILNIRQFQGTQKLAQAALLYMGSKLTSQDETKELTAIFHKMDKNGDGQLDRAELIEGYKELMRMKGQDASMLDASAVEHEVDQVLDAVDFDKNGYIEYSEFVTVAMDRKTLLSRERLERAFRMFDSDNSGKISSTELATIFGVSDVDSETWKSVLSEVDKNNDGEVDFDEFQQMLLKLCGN
Procedure: as §2

TgCDPK1-G128M = biological target: T4, TgCDPK1-G128M (Toxoplasma gondii, UniProt Q9BJF5, G128M); experiment: CDPK enzyme activity assay, TgCDPK1 G128M; type: biochemical, T. gondii
T4 construct: made in house
Procedure: as §2

CpCDPK1 = biological target: T5, CpCDPK1 (Cryptosporidium parvum, UniProt A3FQ16); experiment: CDPK enzyme activity assay, CpCDPK1 WT; type: biochemical, C. parvum; details: Kinase-Glo assay; mean ± SD, n = 2–3 experiments; read-out: CpCDPK1 IC50 (±SD) WT
T5 construct: made in house
Procedure: as §2

CpCDPK1-G152M = biological target: T6, CpCDPK1-G152M (Cryptosporidium parvum, UniProt A3FQ16, G152M); experiment: CDPK enzyme activity assay, CpCDPK1 G152M; type: biochemical, C. parvum
T6 construct: made in house
Procedure: as §2

[3] = system: strain UGA1 expressing nanoluciferase, replication in HCT-8 cells; experiment: Growth inhibition assay in HCT-8 cells (nanoluciferase strain UGA1); type: cell-based, C. parvum; details: Cryptosporidium parvum, 48 h, nanoluciferase readout, (±SD), read-out: EC50 of replication measured in HCT-8 cells
Procedure: strain UGA1 transfected to express nanoluciferase (Nluc) and obtained from the University of Arizona after propagation in newborn calves. HCT-8 cells were added to a 384-well plate and allowed to grow for 48 h to reach 75–90% confluence. The medium was removed, and test compounds were added in serial dilutions prior to the addition of 1000 oocysts per well in RPMI 1640 medium supplemented with 10% heat inactivated FBS and 1% penicillin streptomycin. Plates were incubated for 48 h; Nano-Glo luciferase reagent (Promega, Madison, WI) was then added, and the plates were read on an EnVision multilabel plate reader (PerkinElmer, Waltham, MA). EC50 curves were calculated as previously described using Prism v6.07 (GraphPad Software, La Jolla, CA).

[4] = system: T. gondii tachyzoites, parental control; experiment: Proliferation EC50, host fibroblast nuclei count, parental control; type: cell-based; details: Toxoplasma gondii
Procedure: (§4) Human Foreskin Fibroblasts (HFF) were cultured in DMEM, with D-glucose (4.5 g/L), L-glutamine, and sodium pyruvate (110 mg/L) (Gibco) that were further supplemented with 10% Fetal Clone 1 serum (FCS)(HyClone), 50 U/mL penicillin (Gibco), […] streptomycin (Gibco), and 1× GlutaMax (Gibco). HFF cells were cultured in T25 flasks (Corning) in a humidified incubator at 37 °C and 5% CO2. For culture, media was replaced with DMEM, as described above, with 1% FCS. Mutant strains were created as described in.
(§5) Presence of desired mutations in parasite lines, TgCDPK1^G128M, TgCDPK1^G128M + TgMAPKL1^L162Q and […] was verified through sequencing. Compounds were dissolved in DMSO and serially diluted 4-fold across the first 10 wells of a 96 well plate, with the highest drug concentration in the first column being 25 μM. The strain of was then added to the first 11 columns of the 96-well plate at a density of 4000 parasites per well. The 11th column contained no compounds, and the 12th column contained no parasites and no compound. After 5 days of incubation at 37 °C and 5% CO2, cells were washed with PBS and fixed with 4% PFA in PBS (Thermo Fisher Scientific, Waltham, MA, USA). After fixing, cells were washed three times with PBS and stained with 300 nM DAPI in PBS before being washed again three times with PBS.
(§6) Images were acquired in an ImageXpress Pico Automated Cell Imaging System (Molecular Devices, San Jose, CA, USA) with a 4× objective using UV fluorescence. Following imaging, ImageXpress software was used to count objects with a fluorescence intensity ≥8 and a size of 12–30 μm, giving a total count of host cell nuclei for each well. EC50 were determined based on the number of remaining fibroblast nuclei using a nonlinear regression analysis with GraphPad Prism software version 10.0.0 for Windows, GraphPad Software, Boston, Massachusetts USA. Each compound was tested in ≥3 experiments in quadruplicate rows.

[5] = system: T. gondii tachyzoites expressing TgPKG T761Q; experiment: Proliferation EC50, host fibroblast nuclei count, TgPKG T761Q mutant; type: cell-based; details: for pEC50: Toxoplasma gondii, Fibroblast
Procedure: as §4, §5, §6

[6] = system: T. gondii tachyzoites expressing TgCDPK1 G128M; experiment: Proliferation EC50, host fibroblast nuclei count, TgCDPK1 G128M mutant; type: cell-based
Procedure: as §4, §5, §6

[7] = system: T. gondii tachyzoites expressing TgCDPK1 G128M; TgMAPKL-1 L162Q; experiment: Proliferation EC50, host fibroblast nuclei count, double mutant; type: cell-based
Procedure: as §4, §5, §6

[8] = system: T. gondii RH strain expressing β-galactosidase, parental; experiment: Proliferation EC50, β-galactosidase readout, parental strain; type: cell-based; details: Toxoplasma gondii, 72 h, read-out: T. gondii EC50 (±SD) CONTROL
[9] = system: T. gondii RH strain with L162Q substitution in TgMAPKL1; experiment: Proliferation EC50, β-galactosidase readout, TgMAPKL1 L162Q; type: cell-based
Procedure: as §4
An RH strain of with an L162Q substitution in TgMAPKL1 introduced by CRISPR/Cas9 site directed mutagenesis into a clone expressing β-galactosidase was used to determine the EC50s for proliferation. Compounds were dissolved in DMSO and serially diluted 4-fold across the first 11 columns of a 96 well plate from the highest concentration of 25 μM leaving the final column with no drugs. was added to the first 11 columns of the 96 well plate at 4000 parasites per well. The last column contained no compound. Plates were incubated 72 h at 37 °C and 5% CO2. were quantified by spectrophotometrically measuring the β-galactosidase concentration of each well after cell lysis and exposure to chlorophenol red β-galactopyranose (Sigma-Aldrich, St. Louis, MO) substrate. Each compound was tested at least three times in quadruplicate.

T6 sequence (A3FQ16 whole entry G152M): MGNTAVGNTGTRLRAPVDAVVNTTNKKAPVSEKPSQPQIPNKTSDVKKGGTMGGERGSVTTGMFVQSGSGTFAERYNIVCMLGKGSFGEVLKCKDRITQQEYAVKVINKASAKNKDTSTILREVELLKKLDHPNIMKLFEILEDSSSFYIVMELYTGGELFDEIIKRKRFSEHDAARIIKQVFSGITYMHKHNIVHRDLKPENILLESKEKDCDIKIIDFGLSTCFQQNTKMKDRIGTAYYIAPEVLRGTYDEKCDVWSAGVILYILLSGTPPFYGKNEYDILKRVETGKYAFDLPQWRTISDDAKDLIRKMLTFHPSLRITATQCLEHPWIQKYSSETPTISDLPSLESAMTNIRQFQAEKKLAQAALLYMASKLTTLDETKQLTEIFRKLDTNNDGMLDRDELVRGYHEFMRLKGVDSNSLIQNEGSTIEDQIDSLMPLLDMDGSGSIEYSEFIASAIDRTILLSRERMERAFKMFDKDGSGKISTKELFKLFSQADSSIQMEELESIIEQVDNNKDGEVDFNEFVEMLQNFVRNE
T4 sequence (Q9BJF5 whole entry G128M): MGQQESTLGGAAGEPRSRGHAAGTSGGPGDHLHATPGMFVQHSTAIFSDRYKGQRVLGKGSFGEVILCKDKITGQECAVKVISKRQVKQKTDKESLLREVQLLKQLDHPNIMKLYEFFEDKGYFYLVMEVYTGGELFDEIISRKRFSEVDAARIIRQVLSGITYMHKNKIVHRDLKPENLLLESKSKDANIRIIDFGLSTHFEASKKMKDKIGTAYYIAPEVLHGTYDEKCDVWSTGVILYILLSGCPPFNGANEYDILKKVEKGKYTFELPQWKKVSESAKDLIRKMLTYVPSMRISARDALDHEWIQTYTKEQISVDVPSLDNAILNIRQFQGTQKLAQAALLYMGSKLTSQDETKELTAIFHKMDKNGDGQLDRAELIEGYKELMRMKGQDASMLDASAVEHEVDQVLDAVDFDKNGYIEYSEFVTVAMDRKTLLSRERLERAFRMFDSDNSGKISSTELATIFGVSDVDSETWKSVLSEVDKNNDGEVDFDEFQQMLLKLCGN
T5 sequence (A3FQ16 1-538): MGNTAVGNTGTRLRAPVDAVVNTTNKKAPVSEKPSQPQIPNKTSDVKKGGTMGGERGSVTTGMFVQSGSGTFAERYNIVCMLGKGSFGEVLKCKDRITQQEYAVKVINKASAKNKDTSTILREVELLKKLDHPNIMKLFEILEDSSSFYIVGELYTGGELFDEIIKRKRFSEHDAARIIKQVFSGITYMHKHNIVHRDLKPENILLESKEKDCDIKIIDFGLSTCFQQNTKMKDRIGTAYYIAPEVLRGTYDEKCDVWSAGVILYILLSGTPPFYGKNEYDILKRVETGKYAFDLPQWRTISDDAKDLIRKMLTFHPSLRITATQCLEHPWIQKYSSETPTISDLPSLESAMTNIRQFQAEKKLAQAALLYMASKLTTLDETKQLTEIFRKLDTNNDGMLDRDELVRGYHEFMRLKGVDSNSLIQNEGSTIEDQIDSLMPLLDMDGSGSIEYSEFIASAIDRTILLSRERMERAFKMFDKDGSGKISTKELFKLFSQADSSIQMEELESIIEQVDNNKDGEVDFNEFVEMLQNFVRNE
Sequence of PfPKG T618Q (Q8I719 whole entry T618Q): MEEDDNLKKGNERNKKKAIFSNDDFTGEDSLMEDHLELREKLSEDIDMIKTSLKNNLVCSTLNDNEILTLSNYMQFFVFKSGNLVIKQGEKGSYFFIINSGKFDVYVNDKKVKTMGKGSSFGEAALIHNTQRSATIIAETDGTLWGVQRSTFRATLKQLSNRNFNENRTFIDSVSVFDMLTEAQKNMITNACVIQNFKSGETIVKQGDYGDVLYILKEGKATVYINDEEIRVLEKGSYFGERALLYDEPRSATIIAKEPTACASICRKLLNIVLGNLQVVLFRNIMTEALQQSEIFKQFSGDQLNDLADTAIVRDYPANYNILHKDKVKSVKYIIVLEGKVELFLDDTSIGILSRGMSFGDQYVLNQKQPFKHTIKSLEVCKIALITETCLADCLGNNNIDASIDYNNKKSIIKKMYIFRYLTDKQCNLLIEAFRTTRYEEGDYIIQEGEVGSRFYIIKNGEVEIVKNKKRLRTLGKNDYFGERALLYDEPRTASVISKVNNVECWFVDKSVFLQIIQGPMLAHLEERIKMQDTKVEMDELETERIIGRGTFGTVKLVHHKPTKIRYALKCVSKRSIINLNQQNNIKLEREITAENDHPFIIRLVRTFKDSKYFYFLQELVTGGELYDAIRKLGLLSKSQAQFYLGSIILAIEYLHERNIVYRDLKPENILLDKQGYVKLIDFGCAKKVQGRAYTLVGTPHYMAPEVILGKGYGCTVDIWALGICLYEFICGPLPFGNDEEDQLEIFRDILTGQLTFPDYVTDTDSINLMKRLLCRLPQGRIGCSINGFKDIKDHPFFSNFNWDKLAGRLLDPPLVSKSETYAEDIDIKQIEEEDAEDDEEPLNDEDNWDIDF
T1 sequence (P62344 whole entry): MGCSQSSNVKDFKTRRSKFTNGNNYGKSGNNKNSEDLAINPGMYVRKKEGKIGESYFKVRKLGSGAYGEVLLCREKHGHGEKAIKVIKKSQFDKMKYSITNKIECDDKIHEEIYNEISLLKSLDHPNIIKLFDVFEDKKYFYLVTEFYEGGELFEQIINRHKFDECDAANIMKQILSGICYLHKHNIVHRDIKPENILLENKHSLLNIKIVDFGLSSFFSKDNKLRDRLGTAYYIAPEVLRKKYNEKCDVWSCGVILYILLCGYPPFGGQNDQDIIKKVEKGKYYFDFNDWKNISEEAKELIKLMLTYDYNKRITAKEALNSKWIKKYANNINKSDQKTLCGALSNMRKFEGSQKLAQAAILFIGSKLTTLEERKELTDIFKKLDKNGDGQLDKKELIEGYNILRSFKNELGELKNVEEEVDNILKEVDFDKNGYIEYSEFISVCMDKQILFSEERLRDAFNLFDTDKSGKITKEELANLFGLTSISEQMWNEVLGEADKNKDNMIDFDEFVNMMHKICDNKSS
T2 sequence (Q8IBS5 whole entry): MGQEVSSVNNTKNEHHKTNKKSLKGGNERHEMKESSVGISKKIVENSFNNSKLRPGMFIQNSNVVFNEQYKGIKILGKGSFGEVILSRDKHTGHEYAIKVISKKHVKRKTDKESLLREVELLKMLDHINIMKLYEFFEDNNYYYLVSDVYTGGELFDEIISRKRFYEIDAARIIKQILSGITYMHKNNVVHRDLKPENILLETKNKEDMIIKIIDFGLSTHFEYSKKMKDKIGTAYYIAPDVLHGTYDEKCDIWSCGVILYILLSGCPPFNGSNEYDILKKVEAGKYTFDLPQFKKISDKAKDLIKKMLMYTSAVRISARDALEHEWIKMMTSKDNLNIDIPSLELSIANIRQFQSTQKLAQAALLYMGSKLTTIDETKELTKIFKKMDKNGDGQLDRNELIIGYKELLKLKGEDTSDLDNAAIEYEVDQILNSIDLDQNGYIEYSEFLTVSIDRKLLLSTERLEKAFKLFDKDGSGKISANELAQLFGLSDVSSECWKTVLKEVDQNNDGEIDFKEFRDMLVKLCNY
Sequence of PfPKG (Q8I719 whole entry): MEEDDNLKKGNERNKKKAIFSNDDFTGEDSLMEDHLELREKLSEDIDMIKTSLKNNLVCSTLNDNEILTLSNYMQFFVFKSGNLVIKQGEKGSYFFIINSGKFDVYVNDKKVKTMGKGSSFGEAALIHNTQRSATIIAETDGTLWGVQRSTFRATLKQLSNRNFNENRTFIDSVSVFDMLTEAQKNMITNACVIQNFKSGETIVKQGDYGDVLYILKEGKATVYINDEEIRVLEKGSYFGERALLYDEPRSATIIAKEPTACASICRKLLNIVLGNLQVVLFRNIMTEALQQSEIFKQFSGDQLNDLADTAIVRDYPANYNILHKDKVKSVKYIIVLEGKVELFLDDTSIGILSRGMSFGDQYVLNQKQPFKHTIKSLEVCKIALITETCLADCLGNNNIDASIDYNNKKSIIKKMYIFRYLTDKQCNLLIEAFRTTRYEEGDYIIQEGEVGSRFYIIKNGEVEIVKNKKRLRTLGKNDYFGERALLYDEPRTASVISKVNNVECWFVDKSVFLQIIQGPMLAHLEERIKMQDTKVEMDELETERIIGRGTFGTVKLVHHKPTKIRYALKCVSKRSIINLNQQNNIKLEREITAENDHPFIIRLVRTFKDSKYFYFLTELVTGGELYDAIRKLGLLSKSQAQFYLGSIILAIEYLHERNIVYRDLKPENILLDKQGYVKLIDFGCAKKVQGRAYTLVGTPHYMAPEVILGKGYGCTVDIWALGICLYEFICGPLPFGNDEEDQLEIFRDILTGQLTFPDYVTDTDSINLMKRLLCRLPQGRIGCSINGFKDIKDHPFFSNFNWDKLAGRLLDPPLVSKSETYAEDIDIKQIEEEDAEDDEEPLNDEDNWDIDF

O=C(c1nccs1)N1CC[C@@H](Nc2nccc(-n3cc(C4CC4)nc3-c3cccc(Cl)c3)n2)C1 [(R)-RY-1-185]
pIC50 (PfPKG): 6.72 | pIC50 (PfPKG T618Q): < 5.00 | pIC50 (PfCDPK1): 5.17 | pIC50 (PfCDPK4): 5.66 | pEC50 [1]: 5.19 | pEC50 [2]: 4.99 | pIC50 (TgCDPK1 WT): 7.22 | pIC50 (TgCDPK1-G128M): < 4.52 | TgCDPK1 G128M mutant enzyme less sensitive (TgCDPK1-G128M; G128M versus WT enzyme): ≥ 600 fold | pIC50 (CpCDPK1): 7.05 | pIC50 (CpCDPK1-G152M): < 4.52 | CpCDPK1 G152M mutant enzyme less sensitive (CpCDPK1-G152M; G152M versus WT enzyme): ≥ 300 × | pEC50 [3]: 4.97 | pEC50 ([4]; read-out: T. gondii EC50 (±SD) CONTROL, tachyzoites, parental control of CDPK1 G128M, mean ± SD, n = 3–5): 6.82 | pEC50 ([4]; read-out: T. gondii EC50 (±SD) CONTROL, tachyzoites, parental control of PKG T761Q, mean ± SD, n = 3–5): 7.00 | pEC50 ([4]; read-out: T. gondii EC50 (±SD) CONTROL, tachyzoites, parental control of the double mutant, mean ± SD, n = 3–5): 6.92 | pEC50 ([4]; read-out: average EC50 against parental parasites, parental of TgPKG T761Q): 7.03 | pEC50 ([5]; read-out: T. gondii EC50 (±SD) PKGT761Q): 6.77 | pEC50 ([5]; read-out: average EC50 against the T761Q mutants): 6.79 | increase in EC50, T761Q mutants versus parental ([5]; average): 1.7 fold | EC50 for G128M parasites higher compared to the parental strain ([6]; TgCDPK1 G128M versus parental): 1.8 fold | pEC50 ([6]; Toxoplasma gondii, Fibroblast, read-out: T. gondii EC50 (±SD) CDPK1 G128M): 6.52 | increase in EC50 against double mutant TgCDPK1 G128M; TgMAPKL-1 L162Q versus parental control [7]: 9 fold | pEC50 ([7]; Toxoplasma gondii, Fibroblast, read-out: T. gondii EC50 (±SD) CDPK1 G128M, MAPKL1 L162Q): 5.92 | pEC50 [8]: 6.92 | increase in EC50 against TgMAPKL-1 L162Q parasites versus parental strain [9]: approximately 2.75 fold | pEC50 ([9]; Toxoplasma gondii, 72 h, read-out: T. gondii EC50 (±SD) MAPKL1 L162Q): 6.48
